“And” between values parts separate entries of the source, which are not always exact repeats. Equal values may be shown once. Read-outs that look alike come from different tables or passages of the source.
How the values were obtained:
[1] = system: gills of rainbow trout; assay: Mechanistic one-box mass balance model of gill uptake and elimination; conditions: for predicted gill elimination rate constant eq 1 (k2): from measured kU and modeled αW, αB, DFW
From the text: To gain more mechanistic insight into the results, we formulated a simple one-box mass balance model of chemical bioconcentration in fish that considered diffusive uptake and elimination across the gills as well as biotransformation.[33] The flow of water across the gills and the flow of blood through the gills were modeled as perfusion limited resistances that constrain gill uptake and elimination. […] Consequently, these resistances are unknowns. Ion trapping effects caused by differences in pH between water at the gill surface and blood in the gills are considered, drawing on previous work on the uptake and elimination of ionizable organic chemicals across the gills of rainbow trout.[22],[23] Partitioning of the chemical from the dissolved phase into blood and into whole fish was calculated as the product of the membrane lipid–water distribution ratio (DMLW,T, including partitioning of both the neutral and the charged forms) and the fraction of membrane lipid in blood and whole fish. A detailed description of the model is provided in the SI (Text S3).
The contribution of the water perfusion and blood perfusion resistances were compared with the overall resistance for transport across the gills from water to blood (RW→B), which was calculated from the measured kU according to equation S4.3. […] For all of the other chemicals the blood resistance is insignificant compared to the overall resistance.
The rate constant for elimination across the gills, k2, can be defined as follows: [drawing 1] 1 where αB and αW are the neutral fractions of the chemical in the blood and in the water at the gill surface, respectively, and DFW is the fish-water distribution ratio of the chemical at the pH of blood (8.1) (see Text S3). Using the measured kU and the values of αW, αB, and DFW estimated for the model, k2 was calculated (Table 2).

[2] = system: rainbow trout; set-up: method as in PMID 32062967; conditions: after the 7 d exposure; cited from earlier work
[3] = set-up: method as in Perrin 1965, SRC, REACH, Perrin 1972, Hall 1957; conditions: selected per amine type, weighted from simulated and experimental analogue data; ref Perrin 1965, SRC, REACH, Perrin 1972, Hall 1957; cited from earlier work
[4] = Bioconcentration (BCF) experiment based on OECD 305, aqueous exposure to surfactant mixtures; assay type: in vivo, Oncorhynchus mykiss; conditions: whole fish, read-out: measured total elimination rate constant (kT) (converted)
Description: (§1) Juvenile rainbow trout were purchased from EM lax in Västervik, Sweden, and held in the aquaria facility for one month prior to starting the experiment on August 28, 2018. Ethical approval for the experiments was obtained from Stockholm’s djurförsöksetiska nämnd (decision 9967–2017). The experiment was conducted in six 350 L fiberglass aquaria with a water renewal rate of 1.5 L min^–1 corresponding to a turnover time of […]. The water temperature and the air temperature in the aquaria room were 10 °C. The lighting was dim and programmed on a 12 h light/12 h dark cycle.
(§2) Three BCF experiments were conducted, one each for MIX1 and MIX2 at pH ∼7.6 (denoted MIX1 and MIX2 in the following), and one for MIX1 at pH ∼6.2 (MIX1pH). Each experiment consisted of a 14 d exposure phase and a 28 d depuration phase. There were also two control aquaria where unexposed fish were kept, one at pH 7.6 and one at pH 6.2. For the pH 6.2 aquaria, a 20% v:v formic acid solution was pumped into a premixing basin where it was mixed with the inflowing water before entering the aquarium. pH sensors monitored pH in the premixing basin and the aquarium. The pH for the MIX1 and MIX2 experiments was governed by the pH of the water supply. Water samples were collected at 8 time points during each experiment for the determination of pH and alkalinity. Water samples were collected daily during the exposure phase for determination of total organic carbon (TOC), which was measured with NDIR detection after acidification, purging and high-temperature catalytic combustion (Shimadzu TOC-L).
(§3) For the exposure phase, a methanol solution of the test chemical mixture was infused continuously at 4.0 μL min^–1 into the water inflow of the aquarium using a syringe pump. The target concentrations of the chemicals in water ranged from 2.5 to 100 μg L^–1 (Table 1). They were selected to be as low as possible to minimize the risk of toxic effects while still being high enough to enable collection of high-quality data, building on the results of the tissue distribution experiment.[32] The syringe pump was started in an aquarium containing no fish. After 16 h to allow the concentrations to stabilize, ∼80 rainbow trout were transferred to the aquarium. Over the following 14 d water samples were collected and fish were sacrificed according to the schedule in Table S5. The remaining fish were then transferred to a second aquarium that received water without chemical addition. Over the following 28 d further water samples were collected and fish were sacrificed (Table S5).
(§4) At each fish sampling, 4–6 fish were sacrificed. Fish were also sampled periodically from the control aquaria. Following stunning and severance of the spinal cord, the fish were placed in a polyethylene bag, weighed, and immediately frozen at −20 °C. The median fish weight at sacrifice was 10.94 g, with a 25th and 75th percentile of 8.43 and 13.58 g, respectively.
(§5) Three fish from each time point were prioritized for analysis based on proximity to the median fish weight. Each fish was semithawed, cut into 3–4 pieces, and homogenized with an Ultra-Turrax device. 150 mg of the homogenate was transferred to a preweighed 13 mL polypropylene tube, centrifuged to a pellet, and weighed. 50 μL of methanol was added and the prepared aliquot was frozen. For extraction internal standard solution (isotope labeled standards of Q10 (D21), Q14 (D29), and P16 (D33)), 3 mL of methanol and 3 steel balls (3.2 mm diameter) were added to the prepared aliquot. This mixture was mixed in a bullet blender for 1 min, and then placed in an ultrasound bath at 50 °C for 60 min. Following centrifugation, the supernatant was decanted and the extraction was repeated. The extracts were combined and a portion corresponding to 25–50 mg homogenate was cleaned up on a weak cationic exchange SPE column (WCX, 60 mg) as described elsewhere.[32] […]

[5] = system: juvenile rainbow trout (Oncorhynchus mykiss); assay: as above; assay type: in vivo; conditions: for uptake rate constant (kU): 14 d exposure, 28 d depuration; for uptake rate constant (kU) / BCF (kU/kT) / measured total elimination rate constant (kT): whole fish
Description: as §1, §2, §3, §4, §5

[6] = Membrane-water partition coefficient of the charged form (DMLW,C); assay type: physicochemical; conditions: extrapolated from Timmer and Droge (2017)
Description: Table S3: Test chemical properties
Abbr. pKa$ Log DOC§ Log DMLW,C# SMILES
$ pKa values derived/reported for different alkylamine type analogues. The selected value is expected to be independent of chain length for all longer chain homologues, using a weighted value obtained from the different sources with more focus on experimental data:
Algorithm / simulated data Experimental reference data (25 °C)
Chem ACD/ COSMO- selected
(https://echa.europa.eu/registration-dossier/-

[7] = system: rainbow trout; assay: Semiquantitative screening of demethylation metabolites in exposed fish; assay type: in vivo; conditions: last time point of the exposure phase
Description: Semiquantitative screening of possible demethylation metabolites was conducted in the fish collected at the last time point of the exposure phase. […] Demethylation of T10 to form S10 was reported in an in vitro S9 assay, and it was proposed that this is an important elimination mechanism for tertiary amines in fish.[27] There is in vitro evidence that demethylation of secondary alkylamines also occurs, which will be reported elsewhere.[37]

[8] = ref Timmer and Droge (2017); cited from earlier work
[9] = Estimated neutral fraction in water at the fish gill surface; conditions: pH 7.6 experiments; estimated pKa of 10
From the text: The BCF was markedly lower for the QACs compared to tertiary amines with the same chain length: a factor >670 for Q10 compared to T10, and a factor 160 for Q14 compared to T14 (Figure 1, upper panel). The prominent structural difference between the QACs and the analogous tertiary amines is that the former are permanently charged, while the latter exist in both a charged (protonated) and a neutral form.
Text S5: Estimation of pH at the gill surface
The pH at the surface of the gills was calculated using the following system of 5 equations:
alk = 2 × [CO2 ― ] + [HCO ― ] (3)
DIC = [H CO ] + [HCO ― ] + [CO2 ― ] (4) where alk is alkalinity and DIC is total dissolved inorganic carbon. The dissociation constants K1 and K2 were estimated from water temperature according to equations 9.23 and 9.24 in http://www-naweb.iaea.org/napc/ih/documents/global_cycle/vol%20I/cht_i_09.pdf The measured pH and alkalinity in bulk water were used to solve for [H+], [HCO3-], [CO32-], [H2CO3] and DIC. For the water in the gill lamella, the carbon added to the water via respiration (0.0002 mol L-1 based on estimated oxygen demand and gill ventilation rate for a 10 g fish at 10 °C (Arnot et al. 2008, Armitage et al. 2013)) was added to DIC, and using this new DIC and the alkalinity the 5 equations were resolved for [H+], [HCO3-], [CO32-], [H2CO3] and pH. […]

measured total elimination rate constant (kT) ([5]; pH 7.6 (MIX1, MIX2)) [h^–1]	Structure (SMILES)	k2/kT ([1]; pH 6.2 (MIX1pH))	predicted gill elimination rate constant eq 1 (k2) ([1]; pH 6.2 (MIX1pH)) [h^–1]	modeled water resistance as share of the measured uptake resistance ([1]; pH 7.6)	k2/kT ([1]; pH 7.6 (MIX1, MIX2))	predicted gill elimination rate constant eq 1 (k2) ([1]; pH 7.6 (MIX1, MIX2)) [h^–1]	fraction in gills and skin/mucus [2] [%]	pKa used (selected value) [3]	factor by which BCF is lower at pH 6.2 than at pH 7.6 ([5]; MIX1 vs MIX1pH)	factor by which kT is greater at pH 6.2 than at pH 7.6 ([5]; MIX1 vs MIX1pH)	uptake rate constant (kU) ([5]; pH 6.2 (MIX1pH)) [L kg^–1 h^–1]	BCF (kU/kT) ([5]; pH 6.2 (MIX1pH)) [L kg^–1]	uptake rate constant (kU) ([5]; pH 7.6 (MIX1, MIX2), 10 °C) [L kg^–1 h^–1]	BCF (kU/kT) ([5]; pH 7.6 (MIX1, MIX2)) [L kg^–1]	Log DMLW,C (membrane-water partition coefficient of the charged form) [6]	demethylation metabolites observed in fish [7]	Log DMLW,C (membrane-water partition coefficient of the charged form) [8]	also measured
	CCCCCCCCCCCCCCCCN [P16, Hexadecylamine]	0.09	0.00023	exceeds 50%	0.01	0.00003	73	C16NH2 (10.6)	2	no pH dependency for kT	7.8	3000	15.3	6100	7.90			pH dependency of k2 (factor between pH 7.6 and pH 6.2) ([1]; MIX1 vs MIX1pH): 7; k el ([4]; pH 6.2 (MIX1pH)): 7.22e-07 s⁻¹; k el ([4]; pH 7.6 (MIX1, MIX2)): 6.94e-07 s⁻¹; factor by which kU is lower at pH 6.2 than at pH 7.6 ([5]; MIX1 vs MIX1pH): 2
0.0066	CCCCCCCCCCCCNC [S12, N-methyldodecylamine]				0.6	0.004		C12N(CH3)H (10.8)					5.5	840		P12, a metabolite of S12, was also observed	5.39	
0.0027	CCCCCCCCCCCCCCCCNC [S16, N-methylhexadecylamine]				0.03	0.00007	71	C16N(CH3)H (10.8)					22	8200	7.71	P16 was not detected		
0.0034	CCCCCCCCCCCCCCN(C)C [T14, N,N-dimethyltetradecylamine]				1.2	0.004		C14N(CH3)2 (10.0)					27	8100	6.46			neutral fraction in the water at the fish gill surface [9]: approximately 0.002; factor by which kU is higher than for Q14 ([5]; pH 7.6): 260

Structure (SMILES)	measured total elimination rate constant (kT) ([5]; pH 7.6 (MIX1, MIX2)) [h^–1]	k2/kT ([1]; pH 6.2 (MIX1pH))	predicted gill elimination rate constant eq 1 (k2) ([1]; pH 6.2 (MIX1pH)) [h^–1]	modeled water resistance as share of the measured uptake resistance ([1]; pH 7.6)	k2/kT ([1]; pH 7.6 (MIX1, MIX2))	predicted gill elimination rate constant eq 1 (k2) ([1]; pH 7.6 (MIX1, MIX2)) [h^–1]	fraction in gills and skin/mucus [2] [%]	pKa used (selected value) [3]	factor by which BCF is lower at pH 6.2 than at pH 7.6 ([5]; MIX1 vs MIX1pH)	factor by which kT is greater at pH 6.2 than at pH 7.6 ([5]; MIX1 vs MIX1pH)	uptake rate constant (kU) ([5]; pH 6.2 (MIX1pH)) [L kg^–1 h^–1]	BCF (kU/kT) ([5]; pH 6.2 (MIX1pH)) [L kg^–1]	uptake rate constant (kU) ([5]; pH 7.6 (MIX1, MIX2), 10 °C) [L kg^–1 h^–1]	BCF (kU/kT) ([5]; pH 7.6 (MIX1, MIX2)) [L kg^–1]	Log DMLW,C (membrane-water partition coefficient of the charged form) [6]	demethylation metabolites observed in fish [7]	Log DMLW,C (membrane-water partition coefficient of the charged form) [8]	also measured
CCCCCCCCCN(C)C [T9, N,N-dimethylnonylamine]	0.059				4.6	0.27		C13N(CH3)2 (10.0)					2.0	35		trace levels of the corresponding primary amines	3.07	factor by which k2 exceeded kT ([1]; pH 7.6): ~5
CCCCCCCCCCCCCN(C)C [T13, N,N-dimethyltridecylamine]	0.0049	2.8	0.039	exceeds 50%	1.9	0.010		C13N(CH3)2 (10.0)	9.5	3 and 2.8	4.7	340	15.9	3200	5.88	trace levels of the corresponding primary amines		measured total elimination rate constant (kT) ([5]; pH 6.2 (MIX1pH)): 0.0139 h^–1; BCF compared with REACH B (2000) and vB (5000) thresholds ([5]; pH 7.6): greater than 2000 L kg ww^–1

— PMC8277129, “Bioconcentration of Several Series of Cationic Surfactants in Rainbow Trout” (Environmental Science & Technology, 2021)
